# In publication PMC8811960, “A Novel 2-Carbon-Linked Dimeric Artemisinin With Potent Antileukemic Activity and Favorable Pharmacology” (Frontiers in Oncology, 2022):
# How the values were obtained:
# [1] = tested on: MCL1; test: Western blot for MCL1; format: cell-based, human; details: MOLM14, 200 nM, 18h, similar results in MV4;11 and ML2
# Experimental: Cells were pre-treated with […] ROS detection reagent 5-(and 6-)-chloromethyl-2’,7’-dichlorodihydrofluorescein diacetate (CM-H2DCFDA, Life Technologies) for 30 min, followed by the iron chelator deferoxamine mesylate (DFO; 11 mM) for 60 min. Cells were then treated with ART631 (200 nM) or DMSO control for 18h, with subsequent analysis by flow cytometry. Western blotting and quantitative reverse transcription PCR (qRT-PCR) to assess for molecular markers of ROS-mediated apoptosis were performed as previously described ([20]).
# Figure 4 ART631 elevated ROS and CHOP levels and reduced MCL1 expression in MOLM14 AML cells. (A) MOLM14 AML cells were pre-treated with ROS detection reagent CM-H2DCFDA ([…]) for 30 min, pre-treated with deferoxamine mesylate (DFO; 11 mM) for 60 min, and then treated with ART631 (200 nM) or DMSO control for 18h. They were then analyzed by flow cytometry. Graph represents %CM-H2DCFDA fluorescence compared to vehicle (DMSO) control treated cells. Error bars represent SD from 3 independent experiments. (B) MOLM14 AML cells were treated for 18h with vehicle, AS (10 uM), ART838 (200 nM), ART631 (200 nM), cytarabine (AraC; 150 nM), or SOR (5 uM). Protein was isolated and western blotted for MCL1, BCL2, CHOP, and β-actin. (C) MOLM14 cells were treated as in (B) for 18h, total RNA isolated, cDNA synthesized, and SYBR Green qRT-PCR performed in triplicates. […]
# [2] = tested on: HL60; test: alamarBlue growth inhibition, HL60; format: cell-based; details: Homo sapiens, HL-60, HL60, 48h, mean of 2 independent assays ± SD
# Experimental: (§1) Cytotoxicity was assessed using alamarBlue assays (Life Technologies, Grand Island, NY) following manufacturer’s guidelines. Cell death was verified by Annexin V/7-aminoactinomycin D (7AAD) staining (BioLegend, San Diego, CA) per manufacturer’s guidelines.
# [3] = tested on: AML45 PDX; test: luc-labeled AML45 patient-derived xenograft; format: in vivo, NRG mice; details: ART631 monotherapy p=0.0029
# Description: Immunodeficient NOD-Rag1^nullIL2rg^null (NRG) mice were purchased from Jackson Laboratory (Bar Harbor, ME), bred and housed at the University of Maryland Baltimore. Similar to our previous publication ([20]). mice were transplanted IV with luc-labeled human AML cell lines or cryopreserved AML patient cells on day -10, and baseline total body luminescence was quantified on day 0 by Xenogen bioluminescence imaging (Xenogen IVIS Spectrum; PerkinElmer, Waltham, MA). Mice were allocated to treatment groups so that each group had similar average day 0 luminescence, then groups were administered drugs per oral (PO; gavage). Luminescence of each mouse was assessed over time and compared with that mouse’s day 0 luminescence (fold-change AML burden). Clinical behavior, appearance, weight, and survival were also monitored.
# We then compared the efficacy of 15 mg/kg/d ART631 monotherapy, versus 150 mg/kg/d VEN plus 30 mg/kg/d SOR, versus ART631 combined with VEN plus SOR (i.e. SAV) at the previously indicated doses, using a luc-labeled AML45 PDX model ( Figure 9A ). […]
# Figure 9 VEN plus SOR plus ART631 inhibited growth of an AML PDX. […] (A) After Xenogen quantification of baseline total body luminescence on day 0, mice were placed into balanced experimental groups prior to drug administration via gavage, then treated per our previously established MTD PO x 5 day schedule (5 days on, 9 days off). […]
# [4] = Stability in human plasma (EDTA); format: in vitro ADME; details: 10 µM, 37°C, 1h
# Experimental: (§2) The metabolic stability of ART631 was assessed in human and mouse plasma and liver microsomes (LM). For phase I microsomal stability assays, analogs (10 µM in <1% acetonitrile) were incubated in PBS containing liver microsomes, with or without cofactors ([22]). Microsomal controls (without cofactors) were used to determine non-enzymatic degradation. All experiments were incubated at 37°C for 1h and performed in duplicate. Reactions were stopped with acetonitrile and analyzed as described below.
# ART631 was extracted from 25 µL plasma or microsomal solutions with 100 µL acetonitrile containing artemisinin (i.e. the natural product) as internal standard. […] Mobile phase A was ammonium acetate (2mM) containing 0.1% formic acid, and mobile phase B was acetonitrile containing 0.1% formic acid. The gradient started with mobile phase B and was held at 40% for 0.5 minutes with a flow rate of 0.4 mL/min, then increased to 100% over 1.5 minutes and held for 2.0 minutes, and finally returned back to 40% mobile phase B and allowed to equilibrate for 2.0 minutes. An AB Sciex 5500 triple quadrupole mass spectrometer operated in positive electrospray ionization mode was used for the detection of ART631. For stability studies, the ratio of ART631 to the internal standard, artemisinin, was assessed. […]
# [5] = tested on: HEL; test: alamarBlue growth inhibition, HEL; format: cell-based; details: Homo sapiens, 48h, mean of 2 independent assays ± SD
# Experimental: as §1
# [6] = Phase I microsomal stability, mouse liver microsomes; format: in vitro ADME
# Experimental: as §2
# (§3) ART631 was extracted from 25 µL plasma or microsomal solutions with 100 µL acetonitrile containing artemisinin (i.e. the natural product) as internal standard. […] Mobile phase A was ammonium acetate (2mM) containing 0.1% formic acid, and mobile phase B was acetonitrile containing 0.1% formic acid. The gradient started with mobile phase B and was held at 40% for 0.5 minutes with a flow rate of 0.4 mL/min, then increased to 100% over 1.5 minutes and held for 2.0 minutes, and finally returned back to 40% mobile phase B and allowed to equilibrate for 2.0 minutes. An AB Sciex 5500 triple quadrupole mass spectrometer operated in positive electrospray ionization mode was used for the detection of ART631. For stability studies, the ratio of ART631 to the internal standard, artemisinin, was assessed. Calibration curves for ART631 were computed using the ratio of the peak area to that of the internal standard by using a quadratic equation with a 1/x^2 weighting function over the range of 8-1585 nM with dilutions of up to 1:10 (v/v).
# [7] = Phase I microsomal stability, human liver microsomes; format: in vitro ADME
# Experimental: as §2, §3
# [8] = 10 µM, 37°C, 1h, with cofactors
# [9] = 10 µM, 37°C, 1h, without cofactors
# [10] = NADPH-dependent phase I metabolism
structure (smiles),measurement,setting,value
C=CCO/N=C(/C[C@H]1O[C@@H]2O[C@@]3(C)CC[C@H]4[C@H](C)CC[C@@H]([C@H]1C)[C@@]24OO3)[C@H]1O[C@@H]2O[C@@]3(C)CC[C@H]4[C@H](C)CC[C@@H]([C@H]1C)[C@@]24OO3 [ART631],MCL1 protein expression,[1],decreased
same,IC50,[2],41 ± 9 nM
same,survival versus vehicle,[3],statistically significant increase in survival
same,"percentage remaining, Plasma (EDTA) Human",[4],60%
same,IC50,[5],45 ± 5 nM
same,"percentage remaining, Phase I Metabolism MLM NADPH(+)",[6]; [8],35%
same,"percentage remaining, Phase I Metabolism MLM NADPH(-)",[6]; [9],60%
same,degradation in mouse liver microsomes with co-factors,[6]; [10],~ 40%
same,"percentage remaining, Phase I Metabolism HLM NADPH(+)",[7]; [8],60%
same,"percentage remaining, Phase I Metabolism HLM NADPH(-)",[7]; [9],86%
same,degradation in human liver microsomes with co-factors,[7]; [10],~ 30%
